Test results reported in patent publication US12472193B2, “Methods and compositions for treating and preventing respiratory related diseases and conditions with xylitol-headgroup lipid analogs” (National Jewish Health, priority 2017, dated 2025).

How the values were obtained:
RSV = assay: Binding of RSV to solid phase phospholipid; set-up: species or system human RSV A2 strain; settings: 0.625 nmol lipid, 37° C., 1 hour
Method: Lipids were dried under a stream of nitrogen and resuspended in 100% ethanol, and 0.625 nmol was added in a 40 μL volume to each well of a half-area, 96-well plate. The solvent was evaporated under warm air for 90 minutes. 120 μL of blocking solution (150 mM NaCl, 20 mM Tris pH 7, 5 mM CaCl2) containing 3% BSA w/v) was added to each well and incubated for 1 hour at room temperature. Wells were washed 3 times with (150 mM NaCl, 20 mM Tris pH 7, 5 mM CaCl2)) followed by the addition of 40 μL of serial dilutions of RSV (2.5×10^7, 1.25×10^7, 0.625×10^7, 0.3125×10^7, 0.15625×10^7 pfu/mL) in blocking solution to each well and the plate was incubated at 37° C. for 1 hour. The wells were washed 3 times and 40 μL of α-RSV:HRP antibody diluted 1:500 was added and incubated at 37° C. for 1 hour. After washing out the primary antibody, the peroxidase activity was detected with the substrate o-phenylenediamine and the absorbance read at 490 nm to detect degree of binding.
A quantitative plaque assay takes a week to develop without accounting for maintenance of cells. In order to determine the mechanism of antiviral action of PX analogs and explore a faster assay that could easily be mass-produced, lipids were assessed for their ability to bind RSV. A solid phase of 0.625 nmol of lipid was dried onto a 96-well plate. Binding of fluid-phase RSV to the lipids was assessed at viral concentrations of 8×105 to 2.5×10^7 pfu/mL, at 37° C. for 1 hour. Viral binding was detected with a primary anti-RSV antibody conjugated to HRP. The peroxidase reaction was developed with o-phenylenediamine and absorbance measurement at 490 nm.

TLR 4 = biological target: T1, TLR 4 (Mus musculus, UniProt Q9JHF9+Q9QUK6); assay: LPS-induced TNF-α secretion by RAW264.7 cells (TLR 4 antagonism); format: cell-based; settings: reduction in cytokine secretion vs activating TLR ligand alone
T1 construct: LPS was added to RAW264.7 cells at 10 ng/mL in the absence or presence of 50 μg/mL of lipid; endogenous in cells; host or cells: RAW264.7 (ATCC)
T1 sequence (Q9QUK6 26-835): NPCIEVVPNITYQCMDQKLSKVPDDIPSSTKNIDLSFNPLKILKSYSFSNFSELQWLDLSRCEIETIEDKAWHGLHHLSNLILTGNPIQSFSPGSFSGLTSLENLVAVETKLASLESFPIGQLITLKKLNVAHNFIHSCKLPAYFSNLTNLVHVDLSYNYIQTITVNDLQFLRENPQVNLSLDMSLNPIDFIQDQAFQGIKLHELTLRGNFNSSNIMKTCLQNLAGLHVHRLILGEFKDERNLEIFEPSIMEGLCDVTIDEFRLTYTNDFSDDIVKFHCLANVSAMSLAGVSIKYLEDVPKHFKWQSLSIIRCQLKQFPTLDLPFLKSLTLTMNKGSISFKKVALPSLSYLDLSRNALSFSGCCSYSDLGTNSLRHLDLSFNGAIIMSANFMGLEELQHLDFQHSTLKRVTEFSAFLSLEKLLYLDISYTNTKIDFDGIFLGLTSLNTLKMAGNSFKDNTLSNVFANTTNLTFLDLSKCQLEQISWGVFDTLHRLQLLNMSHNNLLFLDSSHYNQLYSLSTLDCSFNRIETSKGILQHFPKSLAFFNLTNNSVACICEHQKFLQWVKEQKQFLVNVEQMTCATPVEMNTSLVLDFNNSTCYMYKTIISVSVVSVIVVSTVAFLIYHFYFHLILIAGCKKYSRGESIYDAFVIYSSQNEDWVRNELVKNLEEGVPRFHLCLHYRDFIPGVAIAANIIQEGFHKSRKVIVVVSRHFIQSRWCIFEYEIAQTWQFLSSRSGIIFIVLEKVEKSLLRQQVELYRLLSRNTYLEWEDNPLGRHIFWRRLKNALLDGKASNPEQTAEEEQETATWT
T1 sequence (Q9JHF9 19-160): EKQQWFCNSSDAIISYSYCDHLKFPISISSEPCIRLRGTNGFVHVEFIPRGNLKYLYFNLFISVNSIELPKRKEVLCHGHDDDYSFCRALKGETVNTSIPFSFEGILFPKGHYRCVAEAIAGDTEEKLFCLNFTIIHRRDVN

SMILES: CCCCCCCCCCCCCCCC(=O)OCC(COP(=O)(O)OCC(O)C(O)C(O)CO)OC(=O)CCCCCCCCCCCCCCC (stereo not shown) [DPPX, sn-1-palmitoyl, sn-2-palmitoyl sn-3 glycerol phosphoxylitol]
- binding of solid phase lipid to RSV (RSV): bound strongly

SMILES: CCCCCCCCCCCCCC(=O)OC[C@H](COP(=O)(O)OCC(O)C(O)C(O)CO)OC(=O)CCCCCCCCCCCCC (mixture of isomers) [DMPX, sn-1-myristoyl, sn-2-myristoyl sn-3 glycerol phosphoxylitol]
- TLR2 antagonist activity (TLR 4): + (cutoff being greater than a 50% reduction in cytokine secretion compared to activating TLR ligand alone)
- binding of solid phase lipid to RSV (RSV): bound strongly

SMILES: CCCCCCC=CCCCCCCCC(=O)OCC(COP(=O)(O)OCC(O)C(O)C(O)CO)OC(=O)CCCCCCCC=CCCCCCC (mixture of isomers) [16:1 DPPX, sn-1-palmitoleoyl, sn-2-palmitoleoyl sn-3 glycerol phosphoxylitol]
- TLR2 antagonist activity (TLR 4): + (cutoff being greater than a 50% reduction in cytokine secretion compared to activating TLR ligand alone)
- binding of solid phase lipid to RSV (RSV): only bind weakly

SMILES: CCCCCCCC/C=C\CCCCCCCC(=O)O[C@H](COC(=O)CCCCCCCCCCCCCCC)COP(=O)(O)OCC(O)C(O)C(O)CO (stereo partly shown) [POPX, sn-1-palmitoyl, sn-2-oleoyly sn-3 glycerol phosphoxylitol]
- TLR2 antagonist activity (TLR 4): + (cutoff being greater than a 50% reduction in cytokine secretion compared to activating TLR ligand alone)
- binding of solid phase lipid to RSV (RSV): affinity comparable to that of POPG

SMILES: CCCCCCCCC=CCCCCCCCCOCC(COP(=O)(O)OCC(O)C(O)C(O)CO)OCCCCCCCCC=CCCCCCCCC (mixture of isomers) [18:1 DEPX, sn-1-O-octadecenyl, sn-2-O-octadecenyl sn-3 glycerol phosphoxylitol]
- TLR2 antagonist activity (TLR 4): + (cutoff being greater than a 50% reduction in cytokine secretion compared to activating TLR ligand alone)
- binding of solid phase lipid to RSV (RSV): affinity comparable to that of POPG

SMILES: CCCCCCCCCCCCCCCCCC(=O)OCC(COP(=O)(O)OCC(O)C(O)C(O)CO)OC(=O)CCCCCCCCCCCCCCCCC (stereo not shown) [DSPX, sn-1-stearoyl, sn-2-stearoyl sn-3 glycerol phosphoxylitol]
- binding of solid phase lipid to RSV (RSV): bound strongly

SMILES: CCCCCCCCC=CCCCCCCCC(=O)OCC(COP(=O)(O)OCC(O)C(O)C(O)CO)OC(=O)CCCCCCCC=CCCCCCCCC (mixture of isomers) [DOPX, sn-1-oleoyl, sn-2-oleoyl sn-3 glycerol phosphoxylitol]
- TLR2 antagonist activity (TLR 4): + (cutoff being greater than a 50% reduction in cytokine secretion compared to activating TLR ligand alone)
- binding of solid phase lipid to RSV (RSV): only bind weakly

SMILES: CCCCCC=CCC=CCCCCCCCC(=O)OCC(COP(=O)(O)OCC(O)C(O)C(O)CO)OC(=O)CCCCCCCC=CCC=CCCCCC (mixture of isomers) [18:2 DLPX, sn-1-linoleoyl, sn-2-linoleoyl sn-3 glycerol phosphoxylitol]
- TLR2 antagonist activity (TLR 4): + (cutoff being greater than a 50% reduction in cytokine secretion compared to activating TLR ligand alone)
- binding of solid phase lipid to RSV (RSV): only bind weakly

SMILES: CCCCCCCCCCCCCCOC[C@H](COP(=O)(O)OCC(O)C(O)C(O)CO)OCCCCCCCCCCCCCC (mixture of isomers) [14:0 DEPX, sn-1-O-myristyl, sn-2-O-myristyl sn-3 glycerol phosphoxylitol]
- TLR2 antagonist activity (TLR 4): + (cutoff being greater than a 50% reduction in cytokine secretion compared to activating TLR ligand alone)
- binding of solid phase lipid to RSV (RSV): bound to the RSV virus strongly
